Test results as given in article PMC6600388 (2019).
Where two headings read alike, the source gives them in different places. Residues, ends and D or L forms follow the SMILES beside them.

System: human red blood cells
[1] = read-out: RBC Lysis IC50, pH 7.4, pH 7.4
[2] = read-out: RBC Lysis IC50, pH 5.5, pH 5.5

| Compound | IC50 (red cells of human, pH 5.5) [µM] | IC50 (red cells of human, pH 7.4) [µM] | IC50 [1] [µM] | IC50 [2] [µM] |
| --- | --- | --- | --- | --- |
| CC[C@H](C)[C@H](NC(=O)[C@H](CC(C)C)NC(=O)[C@H](CCC(=O)O)NC(=O)[C@H](CCC(=O)O)NC(=O)[C@@H](NC(=O)[C@H](CCC(=O)O)NC(=O)[C@H](CCC(=O)O)NC(=O)[C@H](Cc1ccccc1)NC(=O)[C@H](CC(C)C)NC(=O)CNC(=O)[C@@H](N)CS)[C@@H](C)CC)C(=O)N[C@@H](CCC(=O)O)C(=O)N[C@@H](CCC(=O)O)C(=O)NCC(=O)N[C@@H](CC(C)C)C(=O)N[C@@H](CCC(=O)O)C(=O)N[C@@H](CC(N)=O)C(=O)N[C@@H](CC(C)C)C(=O)N[C@H](C(=O)N[C@@H](CC(=O)O)C(=O)N[C@@H](Cc1c[nH]c2ccccc12)C(=O)N[C@@H](Cc1c[nH]c2ccccc12)C(=O)N[C@@H](Cc1ccc(O)cc1)C(=O)NCC(=O)N[C@@H](Cc1ccc(O)cc1)C(=O)NCC(=O)N[C@@H](Cc1c[nH]cn1)C(=O)N[C@@H](CCCCN)C(=O)N[C@@H](CCCCN)C(=O)N[C@@H](Cc1c[nH]cn1)C(=O)N[C@@H](Cc1c[nH]cn1)C(=O)N[C@@H](CCC(N)=O)C(=O)N[C@@H](Cc1c[nH]cn1)C(=O)N[C@@H](CCCNC(=N)N)C(N)=O)[C@@H](C)CC [Peptide 69] (H-CGLFEEIEELIEEGLENLIDWWYGYGHKKHHQHR-NH2) | 8.73 | > 20 |  |  |
| CC[C@H](C)[C@H](NC(=O)[C@H](CC(C)C)NC(=O)[C@H](CCC(=O)O)NC(=O)[C@H](CCC(=O)O)NC(=O)[C@@H](NC(=O)[C@H](CCC(=O)O)NC(=O)[C@H](CCC(=O)O)NC(=O)[C@H](Cc1ccccc1)NC(=O)[C@H](CC(C)C)NC(=O)CNC(=O)[C@@H](N)CS)[C@@H](C)CC)C(=O)N[C@@H](CCC(=O)O)C(=O)N[C@@H](CCC(=O)O)C(=O)NCC(=O)N[C@@H](CC(C)C)C(=O)N[C@@H](CCCCN)C(=O)N[C@@H](CC(N)=O)C(=O)N[C@@H](CC(C)C)C(=O)N[C@H](C(=O)N[C@@H](CC(=O)O)C(=O)N[C@@H](Cc1c[nH]c2ccccc12)C(=O)N[C@@H](Cc1c[nH]c2ccccc12)C(=O)N[C@@H](Cc1ccc(O)cc1)C(=O)NCC(=O)N[C@@H](Cc1ccc(O)cc1)C(=O)NCC(=O)N[C@@H](Cc1c[nH]cn1)C(=O)N[C@@H](CCCCN)C(=O)N[C@@H](CCCCN)C(=O)N[C@@H](Cc1c[nH]cn1)C(=O)N[C@@H](Cc1c[nH]cn1)C(=O)N[C@@H](CCC(N)=O)C(=O)N[C@@H](Cc1c[nH]cn1)C(=O)N[C@@H](CCCNC(=N)N)C(N)=O)[C@@H](C)CC [Peptide 70] (H-CGLFEEIEELIEEGLKNLIDWWYGYGHKKHHQHR-NH2) | 2.28 | > 20 |  |  |
| CGLFEAIEGFIENGWEGMIDGWYG(Peg11)YGRKKRRQRR [Peptide 36e] |  |  | > 100 |  |
| CGLFEAIEGFIENGWEGMIDGWYG(Peg 3)YGRKKRRQRR [Peptide 36c] |  |  | > 10 | 1.92 |
| CGLFEAIEGFIENGWEGMIDGWYG(Peg 6)YGRKKRRQRR [Peptide 36d] |  |  | > 10 | 1.22 |
| CGLFEAIEGFIENGWEGMIDGWYG(Peg 27)YGRKKRRQRR [Peptide 36f] |  |  | > 100 | 28 |
